This note sets out measurements from ChEMBL document CHEMBL1146671, “Non-peptide alpha v beta 3 antagonists. Part 7: 3-Substituted tetrahydro-naphthyridine derivatives” (Bioorg Med Chem Lett, 2004).

Data set [1] is described as follows: Hammett constant was determined. The format is functional.
In a further data set the target is Integrin alpha-V/beta-3 (Homo sapiens, UniProt P05106+P06756). As to the kind of experiment: Displacement of [125I]L-775,219 from human recombinant alphaV-beta3 integrin. The format is protein-complex assay. For orientation: Loss of bound radioactivity is the signal in a displacement assay; it reports binding, not function.
The nature of data set [2]: Half-life of compound was determined in dogs. The format is ADME, organism-based, Canis lupus familiaris. The conditions noted are these: dog, in vivo.
The nature of data set [3]: Bioavailability in dog. In kind it is ADME, organism-based, Canis lupus familiaris. The conditions noted are these: in vivo.
Data set [4] in a line: Clearance of compound was determined in dogs. The format is ADME, organism-based, Canis lupus familiaris. The conditions noted are these: dog, in vivo.

Each structure is given as a SMILES string. pIC50: −log10 of the molar value.

Sequence of Integrin alpha-V/beta-3 (P05106 27-788 limits assumed): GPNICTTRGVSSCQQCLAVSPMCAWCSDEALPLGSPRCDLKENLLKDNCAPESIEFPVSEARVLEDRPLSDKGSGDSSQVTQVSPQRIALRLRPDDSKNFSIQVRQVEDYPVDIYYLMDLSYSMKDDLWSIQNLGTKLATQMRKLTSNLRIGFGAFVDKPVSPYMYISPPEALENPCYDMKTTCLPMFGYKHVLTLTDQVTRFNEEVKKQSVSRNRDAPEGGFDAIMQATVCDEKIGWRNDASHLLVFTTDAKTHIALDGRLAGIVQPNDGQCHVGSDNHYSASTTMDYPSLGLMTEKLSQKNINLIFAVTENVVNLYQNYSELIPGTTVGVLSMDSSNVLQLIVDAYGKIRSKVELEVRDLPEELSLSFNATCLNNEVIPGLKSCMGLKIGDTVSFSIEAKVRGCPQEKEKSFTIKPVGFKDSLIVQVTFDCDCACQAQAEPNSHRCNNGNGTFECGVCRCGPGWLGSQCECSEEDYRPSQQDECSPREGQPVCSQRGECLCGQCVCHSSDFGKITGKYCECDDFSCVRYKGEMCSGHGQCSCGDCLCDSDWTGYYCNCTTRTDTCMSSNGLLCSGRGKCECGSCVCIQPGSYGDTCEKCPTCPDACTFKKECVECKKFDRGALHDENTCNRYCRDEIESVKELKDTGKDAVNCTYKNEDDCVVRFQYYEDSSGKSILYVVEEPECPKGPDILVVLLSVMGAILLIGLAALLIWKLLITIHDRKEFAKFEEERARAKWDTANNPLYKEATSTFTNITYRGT
Sequence of Integrin alpha-V/beta-3 (P06756 31-889 limits assumed): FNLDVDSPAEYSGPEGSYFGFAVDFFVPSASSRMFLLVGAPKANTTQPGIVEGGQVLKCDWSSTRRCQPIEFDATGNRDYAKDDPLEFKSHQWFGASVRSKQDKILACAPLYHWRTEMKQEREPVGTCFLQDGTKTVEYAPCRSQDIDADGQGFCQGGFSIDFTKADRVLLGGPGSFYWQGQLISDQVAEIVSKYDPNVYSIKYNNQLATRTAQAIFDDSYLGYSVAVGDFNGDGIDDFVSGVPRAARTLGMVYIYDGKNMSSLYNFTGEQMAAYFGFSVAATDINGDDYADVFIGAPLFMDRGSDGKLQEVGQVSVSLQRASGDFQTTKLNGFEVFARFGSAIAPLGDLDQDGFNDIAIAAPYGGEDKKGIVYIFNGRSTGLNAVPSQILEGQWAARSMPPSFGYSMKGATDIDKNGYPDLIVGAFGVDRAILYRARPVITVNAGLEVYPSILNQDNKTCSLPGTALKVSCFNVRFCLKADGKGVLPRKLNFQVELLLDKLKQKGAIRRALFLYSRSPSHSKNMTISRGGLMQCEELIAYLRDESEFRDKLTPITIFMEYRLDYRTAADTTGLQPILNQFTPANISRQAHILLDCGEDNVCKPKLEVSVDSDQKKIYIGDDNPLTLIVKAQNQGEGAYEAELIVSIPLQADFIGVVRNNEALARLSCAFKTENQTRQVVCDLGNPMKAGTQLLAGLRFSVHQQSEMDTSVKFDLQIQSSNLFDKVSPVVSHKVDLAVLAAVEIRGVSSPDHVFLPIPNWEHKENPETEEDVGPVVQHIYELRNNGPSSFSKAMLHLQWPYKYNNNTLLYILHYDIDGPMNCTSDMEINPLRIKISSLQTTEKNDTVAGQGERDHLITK
Sequence of Integrin alpha-V/beta-3 (P06756 891-1048 limits assumed): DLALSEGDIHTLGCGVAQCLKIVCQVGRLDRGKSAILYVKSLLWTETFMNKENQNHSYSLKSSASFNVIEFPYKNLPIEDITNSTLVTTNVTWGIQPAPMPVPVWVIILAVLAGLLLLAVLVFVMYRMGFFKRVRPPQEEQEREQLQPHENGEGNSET

For `COc1ccc([C@H](CC(=O)O)N(C)C(=O)CCCCc2nc3c(cc2C#N)CCCN3)cn1`, in data set [1], the Sigmap came out at 0.71. Besides, the pIC50 at Integrin alpha-V/beta-3 is 7.78.
In turn, `COc1ccc([C@H](CC(=O)O)N(C)C(=O)CCCCc2nc3c(cc2Br)CCCN3)cn1` registered a Sigmap in data set [1] of 0.26. On Integrin alpha-V/beta-3, the pIC50 is 8.64.
On to `COc1ccc([C@H](CC(=O)O)N(C)C(=O)CCCCc2nc3c(cc2[N+](=O)[O-])CCCN3)cn1`, for which the Sigmap in data set [1] is 0.81. The negative-log IC50 (pIC50) at Integrin alpha-V/beta-3 is 7.44.
Taken in the same sequence, the figures for `COc1ccc([C@H](CC(=O)O)N(C)C(=O)CCCCc2nc3c(cc2N)CCCN3)cn1` were -0.3 and 9.40.
Compound `COc1ccc([C@H](CC(=O)O)N(C)C(=O)CCCCc2ccc3c(n2)NCCC3)cn1` had a half-life in data set [2] of 5.8 h. Also, the bioavailability in data set [3] turned out to be 76%. The Sigmap in data set [1] came out at 0. Besides, the pIC50 on Integrin alpha-V/beta-3 was 9.15.
On to `C=Cc1cc2c(nc1CCCCC(=O)N(C)[C@@H](CC(=O)O)c1ccc(OC)nc1)NCCC2`, for which, in data set [1], the Sigmap is -0.14. Moreover, the pIC50 at Integrin alpha-V/beta-3 is 9.52.
`COc1ccc([C@H](CC(=O)O)N(C)C(=O)CCCCc2nc3c(cc2NS(C)(=O)=O)CCCN3)cn1` displayed a Sigmap in data set [1] of 0.03. Besides, at Integrin alpha-V/beta-3, the pIC50 is 9.05.
Taken in the same sequence, the figures for `COc1ccc([C@H](CC(=O)O)N(C)C(=O)CCCCc2nc3c(cc2NC(C)=O)CCCN3)cn1` were 0 and 9.22.
In data set [2], `COc1ccc([C@H](CC(=O)O)N(C)C(=O)CCCCc2nc3c(cc2C)CCCN3)cn1` showed a half-life of 4.9 h. This compound also came in with a bioavailability in data set [3] of 65%. Moreover, in data set [4], the clearance worked out at 2.4 mL/min/kg. The same compound returned a Sigmap in data set [1] of -0.14. Further, the pIC50 on Integrin alpha-V/beta-3 was 9.52.
Take `COc1ccc([C@H](CC(=O)O)N(C)C(=O)CCCCc2nc3c(cc2-c2ccccc2)CCCN3)cn1`: the Sigmap in data set [1] was found to be 0.05. On Integrin alpha-V/beta-3, the pIC50 was 9.05.

Usually pIC50 stands for −log10 of the IC50, conventionally taken in molar units. As usually defined, the half-life is the time needed for the level to fall by half in the phase considered. In general, bioavailability refers to the share of a dose that reaches the circulation, judged against a reference dose that is usually intravenous. A high value points to much systemic uptake. The term clearance denotes the volume of plasma or blood freed of the substance per unit of time. High values mean a high capacity for elimination, low ones a low capacity for elimination.
